In US10765621B2, “Extracts of halimione portulacoides and their application” (Cutech Srl, priority 2013, dated 2020):

Columns and labels:
[1] = test system: IL-1α; assay: IL-1α release by ex-vivo human skin stimulated with 2% SDS (ELISA); type: cell-based
Experimental: In order to study the biological activity of the extracts from Halimione on the inflammatory response of skin to irritation, the experimental protocol summarized below was adopted: Ex-vivo skin samples (7 mm in diameter) were cultivated for 24 hours in 6-well plates (4 skin samples/well) with 2.5 ml/well of modified Williams E medium.
After 24 hours of culture the culture medium was renewed and the skin samples 2 to 6 received the irritant stimulus (2% SDS) through topical application of 4 μl of preparation on each skin sample. After 3 hours the stimulus was removed by means of cotton buds and then 4 μl of extract or dexamethasone were topically administered to the groups 3 to 6. Stimulus and lenitive treatments were diluted in 50% DMSO.
After a further 24 hours of cultivation, the culture media were separately collected from each group and the released IL-1α quantified via ELISA (BioLegend ELISAMAX cat. n. 434905).
Table 14 reports the average values of IL-1α obtained from the two medium samples (4 skin samples/well) collected for each experimental group.

[2] = test system: hair follicles; details: usual response, indicative; cited from earlier work

## C[C@@H]1C[C@H]2[C@@H]3CCC4=CC(=O)C=C[C@]4(C)[C@@]3(F)[C@@H](O)C[C@]2(C)[C@@]1(O)C(=O)CO [Dexam., dexamethasone]
[1]; 2% SDS stimulus, then lenitive treatment 10 mM (positive control), 24 h
  IL-1α released in culture medium: 9.9 pg/mL

## CCCCCCCCCCCCOS(=O)(=O)[O-].[Na+] [SDS]
[1]; 2% SDS stimulus without lenitive treatment (negative control), unstimulated control 1.3
  IL-1α released in culture medium: 14.8 pg/mL

## insulin
[2]
  Hair follicle growth increment produced by well-known stimulants / positive controls: 10%
